Source: PubChem BioAssay (NCI)
“And” between values parts separate entries of the source, which are not always exact repeats. Identical values can stand only once.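 Interpolation was linear, between the two tested concentrations surrounding the appropriate level; five concentrations were tested over 48 hours in 96-well plates. GI50: concentration for 50% inhibition of growth. TGI: total growth inhibition.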

The compounds below were run on TK-10 renal (assay: growth of human tumour cells (NCI), 48 h).
`CC(=O)OCC12C(=O)C[C@@H](C)C3(CC(c4ccoc4)OC3=O)C1CCC(OC(C)=O)C21CO1` (stereo not given in full) gave a TGI greater than 100 µM. Compound `CON(C)C(=O)CNC(=O)OCC1c2ccccc2-c2ccccc21` has a TGI greater than 100 µM. `O=C(NNC(=S)Nc1cccc(Cl)c1)c1cc(-c2ccccc2)nc2ccccc12` gave a TGI of 30.8 µM. In the case of `CCOC(=O)C(=Cc1[nH]c2ccccc2c1-c1c[nH]c2ccccc12)C(=O)OCC`, the TGI was 26.1 µM. For `Cc1cn(C2CC(N(O)Cc3ccccc3)C(CO[Si](C)(C)C(C)(C)C)O2)c(=O)[nH]c1=O` (stereo not given), the GI50 was 37.8 µM and 18 µM and the TGI was > 100 µM and 31.8 µM. Work on `O=C1/C(=N/O)Cc2c(Br)ccc(Br)c21` yielded a TGI greater than 100 µM. Compound `CSc1ncnc2c1ncn2C1CC(Oc2ccc(C)cc2)C(COc2ccc(C)cc2)O1` (stereo not given) has a TGI greater than 100 µM. For `Cc1ccc(N=Nc2c(O)ccc3cc(S(=O)(=O)O)cc(S(=O)(=O)O)c23)cc1`, the TGI was greater than 100 µM. Work on `COc1ccc(C2OC[C@H]3O[C@@H](OCc4ccccc4)[C@H](O)[C@@H](O)[C@@H]3O2)cc1` (stereo not given in full) yielded a TGI greater than 100 µM. `O=C(O)Cc1cccc2c(=O)c3ccccc3oc12` showed a TGI greater than 100 µM. Compound `CCOC(=O)N/N=C(/N)c1cccc([N+](=O)[O-])c1` has a TGI greater than 100 µM. For `Cc1cc(S(=O)(=O)N=C2N(Cc3ccccc3)CCN2Cc2ccccc2)c(S)cc1Cl`, the TGI was greater than 100 µM. In the case of `Oc1ccc(-c2nc(-c3cccnc3)c(-c3ccc(Cl)cc3)[nH]2)cc1`, the TGI was 26.3 µM. Compound `CCCN1CCC(=O)N(CCC(F)(F)C(F)(F)C(F)(F)C(F)(F)C(F)(F)C(F)(F)F)C1=S` has a TGI greater than 100 µM. In the case of `CSc1ccc2c(cc1=O)[C@@H](NC(=O)c1ccc(N)cc1)CCc1cc(O)c(O)c(O)c1-2`, the GI50 was 24.2 µM and > 100 µM and the TGI was greater than 100 µM. Work on `CN1CCC(O)(C(C)(C)C)CC1` yielded a TGI greater than 100 µM. With `Cn1cc(NC(=O)c2cc(NC(=O)CN=C(N)N)cn2C)cc1C(=O)NCCC(=N)N` the TGI was greater than 100 µM. For `Cn1c2c(c3ccccc31)CC1c3c(c4ccccc4n3C)CC21` (stereo not given), the TGI was greater than 100 µM.

The compounds below were run on U251 CNS (assay: growth of human tumour cells (NCI), 48 h).
Compound `CCN(CC)C(=O)Cn1c(C)cc2ccccc21` has a TGI greater than 100 µM. In the case of `CC1(C)NC2C(=O)c3c([nH]c4ccccc34)[C@]3(C)CCC1CC23` (stereo not given in full), the TGI was greater than 100 µM. `COc1cc(/C=C2\C(=O)N(c3ccccc3)C(c3ccccc3)S2(=O)=O)cc(OC)c1OC` (stereo not given) showed a TGI greater than 100 µM. Work on `COc1ccc2ccccc2c1/C=C/C(=O)c1ccccc1` yielded a TGI of 4.98 µM. With `C[C@]12CCC(=O)O[C@H]1CCCCO2` the TGI was greater than 100 µM. `Cc1nc(-c2cc3cc([N+](=O)[O-])ccc3oc2=O)cs1` was tested, and the TGI was greater than 100 µM. With `CC(C)=CCC/C(C)=C/C=C/C(C)=C/C=C/C(C)=C/C=C/C=C(C)/C=C/C=C(C)/C=C/[C@H]1C(C(C)(C)O)CC[C@]1(C)O` (stereo not given in full) the TGI was 47.4 µM. Compound `O=C1C(CN2CCCCC2)CCC1CN1CCCCC1` (stereo not given) has a TGI greater than 73.2 µM. With `CC1=NNC(N)=N/C1=C\C(Sc1ccc(Cl)cc1)c1ccc([N+](=O)[O-])cc1` (stereo not given) the TGI was greater than 100 µM. Work on `c1ccc2c(c1)ccn2CCc1c[nH]c2ccccc12` yielded a TGI greater than 10 µM. Work on `CC(C)[Si](OC1=C(C(=O)N(C)c2cccc(Cl)c2)CCCC1)(C(C)C)C(C)C` yielded a TGI of 32.9 µM. For `COc1cc(CNCc2cc(OC)c(OC)c(OC)c2)cc(OC)c1OC`, the TGI was greater than 10 µM. Compound `Cc1ccc2c(c1)C(C(=O)N[C@@H]1C(=O)N3[C@@H]1SC(C)(C)[C@@H]3C(=O)O)OCCC2` (stereo not given in full) has a TGI greater than 100 µM. For `O=Cc1ccc2c(c1)CC1(Cc3ccccc3C1)C2`, the TGI was 36.2 µM. Compound `O=C(N/N=C\c1cccc2c([N+](=O)[O-])cccc12)Nc1ccccc1` has a TGI of 24 µM. `CC(=O)OCC12C(=O)C[C@@H](C)C3(CC(c4ccoc4)OC3=O)C1CCC(OC(C)=O)C21CO1` (stereo not given in full) gave a TGI greater than 100 µM. `CON(C)C(=O)CNC(=O)OCC1c2ccccc2-c2ccccc21` was tested, and the TGI was greater than 100 µM. In the case of `O=C(NNC(=S)Nc1cccc(Cl)c1)c1cc(-c2ccccc2)nc2ccccc12`, the TGI was 30.4 µM. `CCOC(=O)C(=Cc1[nH]c2ccccc2c1-c1c[nH]c2ccccc12)C(=O)OCC` showed a TGI of 24.3 µM. In the case of `Cc1cn(C2CC(N(O)Cc3ccccc3)C(CO[Si](C)(C)C(C)(C)C)O2)c(=O)[nH]c1=O` (stereo not given), the TGI was 38.6 µM and 28.4 µM. `O=C1/C(=N/O)Cc2c(Br)ccc(Br)c21` showed a TGI greater than 100 µM. In the case of `CSc1ncnc2c1ncn2C1CC(Oc2ccc(C)cc2)C(COc2ccc(C)cc2)O1` (stereo not given), the TGI was greater than 100 µM. With `Cc1ccc(N=Nc2c(O)ccc3cc(S(=O)(=O)O)cc(S(=O)(=O)O)c23)cc1` the TGI was greater than 100 µM. In the case of `COc1ccc(C2OC[C@H]3O[C@@H](OCc4ccccc4)[C@H](O)[C@@H](O)[C@@H]3O2)cc1` (stereo not given in full), the TGI was greater than 100 µM. `O=C(O)Cc1cccc2c(=O)c3ccccc3oc12` was tested, and the TGI was greater than 100 µM. Work on `O=C(O)c1ccc([N+](=O)[O-])c2cc3cnccc3nc12` yielded a TGI of 35.6 µM. Compound `CCOC(=O)N/N=C(/N)c1cccc([N+](=O)[O-])c1` has a TGI greater than 100 µM. `Cc1cc(S(=O)(=O)N=C2N(Cc3ccccc3)CCN2Cc2ccccc2)c(S)cc1Cl` was tested, and the TGI was greater than 100 µM. `Oc1ccc(-c2nc(-c3cccnc3)c(-c3ccc(Cl)cc3)[nH]2)cc1` gave a TGI of 28.5 µM. `CCCN1CCC(=O)N(CCC(F)(F)C(F)(F)C(F)(F)C(F)(F)C(F)(F)C(F)(F)F)C1=S` gave a TGI greater than 100 µM. For `CSc1ccc2c(cc1=O)[C@@H](NC(=O)c1ccc(N)cc1)CCc1cc(O)c(O)c(O)c1-2`, the TGI was 57.3 µM and > 100 µM. `CN1CCC(O)(C(C)(C)C)CC1` gave a TGI greater than 100 µM. Work on `Cn1cc(NC(=O)c2cc(NC(=O)CN=C(N)N)cn2C)cc1C(=O)NCCC(=N)N` yielded a TGI greater than 100 µM. `N=C(N)c1ccc(C(NC(=O)CNS(=O)(=O)c2ccc3ccccc3c2)P(=O)(Oc2ccccc2)Oc2ccccc2)cc1` (stereo not given) gave a TGI greater than 100 µM. `Cn1c2c(c3ccccc31)CC1c3c(c4ccccc4n3C)CC21` (stereo not given) was tested, and the TGI was greater than 100 µM.
